# In patent US20120101087A1, “Generation of Combinatorial Synthetic Libraries and Screening for Novel Proadhesins and Nonadhesins” (priority 2007, published 2012):
# Where two headings read alike, the source gives them in different places.
# How the values were obtained:
# [1] = Solubility in water (solubility classes of screening compounds); assay type: physicochemical
# [2] = test system: Dengue 2 (DENV-2 strain NG-2); test: microbe, parasite or virus in culture; assay type: cell-based, Dengue virus
# P. aerug. = test: Effectiveness towards P. aerug. (cystic fibrosis application, IC50 % wt/vol); assay type: cell-based, Pseudomonas aeruginosa
# [3] = test system: MRSA Staphylococcus aureus; test: Anti-adhesion assay for MRSA Staphylococcus aureus; assay type: cell-based; conditions: for IC50: read-out: IC50 anti-adhesion MRSA Staphylococcus aureus; for ICMAX (μM), IC100: maximal inhibition given as IC100
# Colletotrichum acutatum = test: Petri dish assay for activity against Colletotrichum acutatum (spore adhesion to polystyrene)
# Dengue virus = test: Direct binding assay (DART TOF-MS) to Dengue virus; conditions: FIG. 6
# Source text: The virus particles were collected and fixed in 100% (USP) ethanol prior to DART TOF-MS analysis. The closed end of a borosilicate glass capillary tube was immersed in the virion solution and passed through the DART He plasma to obtain mass spectra of virion surface-bound chemistries. […] The same conditions were used to assess the binding of composition here to bacterial species.
# Staphylococcus areus = test: Direct binding assay (DART TOF-MS) to Staphylococcus aureus; conditions: FIG. 7
# S. aureus = test: Effectiveness towards S. aureus (IC50 % wt/vol); assay type: cell-based, Staphylococcus aureus
smiles,measurement,setting,value
CNC(=O)C(Cc1ccc(OS(C)(=O)=O)cc1)NC(=O)COCC(=O)Nc1cccc(OS(C)(=O)=O)c1 (stereo not shown) [Compound A02],Solubility in water,[1],insoluble in water
CNC(=O)C(Cc1ccc(OS(=O)(=O)C(F)(F)F)cc1)NC(=O)COCC(=O)Nc1cccc(OS(=O)(=O)C(F)(F)F)c1 (stereo not shown) [Compound B02],Solubility in water,[1],insoluble in water
CCN(CCOC(=O)/C=C/c1ccc(O)cc1)Cc1cc(Cl)ccc1O [Compound I],Dengue infection when compound is bound to virus,"[2]; FIG. 6, virions from direct binding assay",inhibited
same,"IC50 (% wt/vol), pathogen P. aerug.",P. aerug.,0.001 % wt/vol
same,Adhesion of Staphylococcus areus when compound is bound,[3]; FIG. 7,blocks adhesion
same,"ICMAX (μM), IC70","[3]; maximal inhibition printed as IC70, value is the concentration",IC70 - 120 μM
same,"IC50 (% wt/vol), pathogen C. acut.",Colletotrichum acutatum,0.004 % wt/vol
same,Direct binding to Dengue virus (DART-MS peak),Dengue virus,direct binding
same,Direct binding to Staphylococcus areus (DART-MS peak),Staphylococcus areus,binds to the bacteria
CN(CCCNC(=O)c1ccc(O)cc1)CCCNC(=O)c1ccc2cc(O)ccc2c1 [III],"IC50 (% wt/vol), pathogen P. aerug.",P. aerug.,0.001 % wt/vol
same,IC50,"[3]; Staphylococcus aureus, MRSA",7.1 µM
same,"ICMAX (μM), IC100",[3]; value is the concentration,IC100 - 100 μM
same,"IC50 (% wt/vol), pathogen C. acut.",Colletotrichum acutatum,<0.005 % wt/vol
same,"IC50 (% wt/vol), pathogen S. aure.",S. aureus,<0.017 % wt/vol
CN(CCCNC(=O)c1ccc(O)cc1)CCCNC(=O)c1ccc(O)cc1 [IV],IC50,"[3]; Staphylococcus aureus, MRSA",1.5 µM
same,IC90,"[3]; Staphylococcus aureus, MRSA, read-out: ICMAX (μM), IC90",10 µM
O=C(c1ccc(O)cc1)N1CCCN(C(=O)c2ccc3cc(O)ccc3c2)CC1 [VI],IC50,"[2]; Dengue virus, DENV2, LLC-MK2, read-out: IC50 Dengue 2, anti-infection (adhesion)",114 µM
same,"IC50 (% wt/vol), pathogen P. aerug.",P. aerug.,<0.005 % wt/vol
same,IC50,"[3]; Staphylococcus aureus, MRSA",2.5 µM
same,"ICMAX (μM), IC100",[3]; value is the concentration,IC100 - 10 μM
same,"IC50 (% wt/vol), pathogen C. acut.",Colletotrichum acutatum,<0.005 % wt/vol
same,"IC50 (% wt/vol), pathogen S. aure.",S. aureus,<0.017 % wt/vol
"O=C(O)/C=C/c1ccc(OS(=O)(=O)O)cc1 [Zosteric Acid, reference compound]",IC50,"[2]; from graph of % inhibition versus concentration, read-out: IC50 Dengue 2, anti-infection (adhesion)",1190 µM
same,"ICMAX (μM), IC100",[3]; value is the concentration,IC100 - 90 μM
same,IC50,[3],24.8 µM
